# Measurements: paper PMC5824342 (Bioconjugate Chemistry, 2017)
# How the values were obtained:
# [1] = LC-MS, previous study of the authors; cited from earlier work
# GRPR = GRPR (Homo sapiens, UniProt P30550); assay: Competitive binding assay, displacement of 125I-[Tyr4]BBN on PC-3 cells
# Chain of GRPR (P30550 whole entry): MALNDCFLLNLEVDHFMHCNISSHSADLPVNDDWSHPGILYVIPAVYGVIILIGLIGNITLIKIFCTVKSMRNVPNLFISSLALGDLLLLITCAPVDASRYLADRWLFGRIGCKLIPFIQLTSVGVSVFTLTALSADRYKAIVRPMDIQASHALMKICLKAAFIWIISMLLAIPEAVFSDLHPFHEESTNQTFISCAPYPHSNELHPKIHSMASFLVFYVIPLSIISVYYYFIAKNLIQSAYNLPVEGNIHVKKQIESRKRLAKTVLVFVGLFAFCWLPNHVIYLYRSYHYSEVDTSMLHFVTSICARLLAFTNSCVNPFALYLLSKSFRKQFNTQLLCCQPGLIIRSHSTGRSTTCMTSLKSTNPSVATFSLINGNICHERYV
Structure (SMILES),t1/2 of degradation during incubation in rat hepatocytes [1],IC50 (GRPR)
CSCC[C@H](NC(=O)[C@H](CC(C)C)NC(=O)[C@H](Cc1cnc[nH]1)NC(=O)CNC(=O)[C@@H](NC(=O)[C@H](C)NC(=O)[C@H](Cc1c[nH]c2ccccc12)NC(=O)[C@@H](N)CCC(N)=O)C(C)C)C(N)=O [BBN7–14],4 min,
CSCC[C@H](NC(=O)[C@H](CC(C)C)NC(=O)[C@H](Cc1c[nH]cn1)NC(=O)CNC(=O)[C@@H](NC(=O)[C@H](C)NC(=O)[C@H](Cc1c[nH]c2ccccc12)NC(=O)[C@H](CCC(N)=O)NC(=O)CCCCCNC(=O)CN1CCN(CC(=O)O)CCN(CC(=O)O)CC1)C(C)C)C(N)=O [NOTA–Aca–BBN7–14],,1.8 ± 0.67 nM
